# In US10131652B2, “Pyrimidinyloxy benzene derivatives as herbicides” (E. I. DU PONT DE NEMOURS AND COMPANY, priority 2014, dated 2018):
# What was measured:
# Format in all cases: in vivo
# [1] = tested on: barnyardgrass (Echinochloa crus-galli); test: Test D pre-/postemergence plant response
# How it was run: (§1)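 Two application timings were run together: preemergence onto seeded loam–sand pots, and postemergence onto 1- to 4-leaf plants (2 to 18 cm) in peat/vermiculite medium with starter nutrients. Formulation was a non-phytotoxic solvent with surfactant. Ratings, 0 to 100, were made visually versus controls after 13 to 15 greenhouse days.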
# [2] = tested on: blackgrass (Alopecurus myosuroides); test: Test D pre-/postemergence plant response
# How it was run: as §1
# [3] = tested on: pigweed (Amaranthus retroflexus); test: Test D pre-/postemergence plant response
# How it was run: as §1
# [4] = tested on: ragweed (common ragweed, Ambrosia elatior); test: Test D pre-/postemergence plant response
# How it was run: as §1
# [5] = tested on: Italian ryegrass (Lolium multiflorum); test: Test D pre-/postemergence plant response
# How it was run: as §1
# [6] = tested on: giant foxtail (Setaria faberii); test: Test D pre-/postemergence plant response
# How it was run: as §1
# [7] = tested on: lambsquarters (Chenopodium album); test: Test D pre-/postemergence plant response
# How it was run: as §1
# [8] = tested on: waterhemp (common waterhemp, Amaranthus rudis); test: Test D pre-/postemergence plant response
# How it was run: as §1
# corn (Zea mays) [9] = test: Test D pre-/postemergence plant response
# How it was run: as §1
# [10] = tested on: morningglory (Ipomoea coccinea); test: Test D pre-/postemergence plant response
# How it was run: as §1
# [11] = tested on: galium (catchweed bedstraw, Galium aparine); test: Test D pre-/postemergence plant response
# How it was run: as §1
# [12] = tested on: barnyardgrass (Echinochloa crus-galli); test: Test B pre-/postemergence plant response
# How it was run: (§2)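 Visual injury scores on a 0–100 scale (100 = complete control) relative to untreated plants, taken about 10 days post-treatment in greenhouse. Treatments were a directed preemergence soil spray and a postemergence spray at one- to two-leaf stage, using surfactant-containing solvent formulation.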
# [13] = tested on: pigweed (Amaranthus retroflexus); test: Test B pre-/postemergence plant response
# How it was run: as §2
# [14] = tested on: giant foxtail (Setaria faberii); test: Test B pre-/postemergence plant response
# How it was run: as §2
# corn (Zea mays) [15] = test: Test B pre-/postemergence plant response
# How it was run: as §2
# [16] = tested on: wheat (Triticum aestivum); test: Test B pre-/postemergence plant response
# How it was run: as §2
# [17] = Postemergence, 31 g ai/ha, scale 0 to 100 (0 no effect, 100 complete control)
# [18] = Postemergence, 62 g ai/ha, scale 0 to 100, 0 no effect, 100 complete control
# [19] = Postemergence, 125 g ai/ha, scale 0 to 100, 0 no effect, 100 complete control
# [20] = Preemergence, 16 g ai/ha, scale 0 to 100 (0 no effect, 100 complete control)
# [21] = Preemergence, 31 g ai/ha, scale 0 to 100 (0 no effect, 100 complete control)
# [22] = Preemergence, 62 g ai/ha, scale 0 to 100 (0 no effect, 100 complete control)
# [23] = 125 g ai/ha, postemergence, 0 to 100 scale, 0 no effect, 100 complete control
# [24] = Postemergence, 500 g ai/ha, 0 to 100 scale (0 no effect, 100 complete control)
# [25] = Preemergence, 125 g ai/ha, 0 to 100 scale (0 no effect, 100 complete control)
# [26] = Preemergence, 500 g ai/ha, 0 to 100 scale where 0 is no effect and 100 is complete control
smiles,measurement,setting,value
N#Cc1cccc(Oc2ncc(Cl)cn2)c1-c1cc(C(F)F)on1 [Compound 180],"Plant response rating (scale 0 to 100), Barnyardgrass","[1]; Postemergence, 16 g ai/ha",0
same,Barnyardgrass plant response rating,[1]; [17],0
same,"Plant response rating, Barnyardgrass",[1]; [18],5
same,"Plant response rating, Barnyardgrass",[1]; [19],5
same,"Plant response rating (scale 0 to 100), Barnyardgrass","[1]; Preemergence, 125 g ai/ha",80
same,"Plant response rating, Barnyardgrass",[1]; [20],0
same,"Plant response rating, Barnyardgrass",[1]; [21],0
same,"Plant response rating, Barnyardgrass",[1]; [22],35
same,"Plant response rating (scale 0 to 100), Blackgrass","[2]; Postemergence, 16 g ai/ha",0
same,Blackgrass plant response rating,[2]; [17],0
same,"Plant response rating, Blackgrass",[2]; [18],5
same,"Plant response rating, Blackgrass",[2]; [19],5
same,"Plant response rating (scale 0 to 100), Blackgrass","[2]; Preemergence, 125 g ai/ha",70
same,"Plant response rating, Blackgrass",[2]; [20],0
same,"Plant response rating, Blackgrass",[2]; [21],0
same,"Plant response rating, Blackgrass",[2]; [22],60
same,"Plant response rating (scale 0 to 100), Pigweed","[3]; Postemergence, 16 g ai/ha",70
same,Pigweed plant response rating,[3]; [17],75
same,Pigweed plant response rating,[3]; [18],75
same,"Plant response rating, Pigweed",[3]; [19],98
same,"Plant response rating (scale 0 to 100), Pigweed","[3]; Preemergence, 125 g ai/ha",100
same,"Plant response rating, Pigweed",[3]; [20],80
same,"Plant response rating, Pigweed",[3]; [21],98
same,"Plant response rating, Pigweed",[3]; [22],100
same,"Plant response rating (scale 0 to 100), Ragweed","[4]; Postemergence, 16 g ai/ha",30
same,Ragweed plant response rating,[4]; [17],40
same,Ragweed plant response rating,[4]; [18],35
same,"Plant response rating, Ragweed",[4]; [19],65
same,"Plant response rating (scale 0 to 100), Ragweed","[4]; Preemergence, 125 g ai/ha",55
same,"Plant response rating, Ragweed",[4]; [20],0
same,"Plant response rating, Ragweed",[4]; [21],5
same,"Plant response rating, Ragweed",[4]; [22],15
same,"Plant response rating (scale 0 to 100), Ryegrass, Italian","[5]; Postemergence, 16 g ai/ha",0
same,"Ryegrass, Italian plant response rating",[5]; [17],0
same,"Ryegrass, Italian plant response rating",[5]; [18],5
same,"Plant response rating, Ryegrass, Italian",[5]; [19],20
same,"Plant response rating (scale 0 to 100), Ryegrass, Italian","[5]; Preemergence, 125 g ai/ha",65
same,"Plant response rating, Ryegrass, Italian",[5]; [20],0
same,"Plant response rating, Ryegrass, Italian",[5]; [21],0
same,"Plant response rating, Ryegrass, Italian",[5]; [22],50
same,"Plant response rating (scale 0 to 100), Foxtail, Giant","[6]; Postemergence, 16 g ai/ha",60
same,"Foxtail, Giant plant response rating",[6]; [17],50
same,"Plant response rating, Foxtail, Giant",[6]; [18],30
same,"Plant response rating, Foxtail, Giant",[6]; [19],45
same,"Plant response rating (scale 0 to 100), Foxtail, Giant","[6]; Preemergence, 125 g ai/ha",100
same,"Plant response rating, Foxtail, Giant",[6]; [20],5
same,"Plant response rating, Foxtail, Giant",[6]; [21],60
same,"Plant response rating, Foxtail, Giant",[6]; [22],85
same,"Plant response rating (scale 0 to 100), Lambsquarters","[7]; Postemergence, 16 g ai/ha",70
same,Lambsquarters plant response rating,[7]; [17],80
same,Lambsquarters plant response rating,[7]; [18],98
same,"Plant response rating, Lambsquarters",[7]; [19],98
same,"Plant response rating (scale 0 to 100), Lambsquarters","[7]; Preemergence, 125 g ai/ha",90
same,"Plant response rating, Lambsquarters",[7]; [20],95
same,"Plant response rating, Lambsquarters",[7]; [21],100
same,"Plant response rating, Lambsquarters",[7]; [22],100
same,"Plant response rating (scale 0 to 100), Waterhemp","[8]; Postemergence, 16 g ai/ha",40
same,Waterhemp plant response rating,[8]; [17],75
same,Waterhemp plant response rating,[8]; [18],90
same,"Plant response rating, Waterhemp",[8]; [19],98
same,"Plant response rating (scale 0 to 100), Waterhemp","[8]; Preemergence, 125 g ai/ha",100
same,"Plant response rating, Waterhemp",[8]; [20],40
same,"Plant response rating, Waterhemp",[8]; [21],95
same,"Plant response rating, Waterhemp",[8]; [22],95
same,"Plant response rating (scale 0 to 100), Corn","corn (Zea mays) [9]; Postemergence, 16 g ai/ha",5
same,Corn plant response rating,corn (Zea mays) [9]; [17],5
same,"Plant response rating, Corn",corn (Zea mays) [9]; [18],10
same,"Plant response rating, Corn",corn (Zea mays) [9]; [19],15
same,"Plant response rating (scale 0 to 100), Corn","corn (Zea mays) [9]; Preemergence, 125 g ai/ha",30
same,"Plant response rating, Corn",corn (Zea mays) [9]; [20],0
same,"Plant response rating, Corn",corn (Zea mays) [9]; [21],0
same,"Plant response rating, Corn",corn (Zea mays) [9]; [22],5
same,"Plant response rating (scale 0 to 100), Morningglory","[10]; Postemergence, 16 g ai/ha",40
same,Morningglory plant response rating,[10]; [17],55
same,Morningglory plant response rating,[10]; [18],90
same,"Plant response rating, Morningglory",[10]; [19],90
same,"Plant response rating (scale 0 to 100), Morningglory","[10]; Preemergence, 125 g ai/ha",100
same,"Plant response rating, Morningglory",[10]; [20],0
same,"Plant response rating, Morningglory",[10]; [21],0
same,"Plant response rating, Morningglory",[10]; [22],5
same,"Plant response rating (scale 0 to 100), Galium","[11]; Postemergence, 16 g ai/ha",65
same,Galium plant response rating,[11]; [17],75
same,"Plant response rating, Galium",[11]; [18],100
same,"Plant response rating, Galium",[11]; [19],100
same,"Plant response rating (scale 0 to 100), Galium","[11]; Preemergence, 125 g ai/ha",98
same,"Plant response rating, Galium",[11]; [20],75
same,"Plant response rating, Galium",[11]; [21],80
same,"Plant response rating, Galium",[11]; [22],98
same,"Plant response rating, Barnyardgrass",[12]; [23],50
same,"Plant response rating, Barnyardgrass",[12]; [24],90
same,Barnyardgrass plant response rating,[12]; [25],20
same,"Plant response rating, Barnyardgrass",[12]; [26],80
same,"Plant response rating, Pigweed",[13]; [23],100
same,"Plant response rating, Pigweed",[13]; [24],100
same,Pigweed plant response rating,[13]; [25],100
same,"Plant response rating, Pigweed",[13]; [26],100
same,"Plant response rating, Foxtail, Giant",[14]; [23],80
same,"Plant response rating, Foxtail, Giant",[14]; [24],100
same,"Foxtail, Giant plant response rating",[14]; [25],90
same,"Plant response rating, Foxtail, Giant",[14]; [26],100
same,"Plant response rating, Corn",corn (Zea mays) [15]; [23],20
same,"Plant response rating, Corn",corn (Zea mays) [15]; [24],70
same,"Plant response rating, Wheat",[16]; [23],60
same,"Plant response rating, Wheat",[16]; [24],90
